Experimental data from PubChem BioAssay AID330 (DTP/NCI, 2004).
“And” between values parts separate entries of the source, which are not always exact repeats. Equal entries are not always repeated. Toxic doses and inconclusive results are not listed. Peptide text beside a SMILES is read from it. * marks the point of attachment. Trt = c1ccc(C(c2ccccc2)(c2ccccc2)*)cc1; Bn = c1ccc(C*)cc1

System: P388 leukemia ip, CD2F1 mice, survival T/C
Test: NCI In Vivo Anticancer Drug Screen. Data for tumor model P388 Leukemia (intraperitoneal) in CD2F1 (CDF1) mice
Details: endpoint: median survival time, higher = longer survival
Procedure, shortened: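 Mice carrying the transplanted tumor received test compound or vehicle. Survival was recorded in each group, and the value is the treated-group measurement divided by that of the vehicle-treated control group.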

[1] = dose: 50.0 mg/kg/injection, schedule: Q01DX009 (ip), vehicle: saline with Tween-80
[2] = dose: 100.0 mg/kg/injection, schedule: Q01DX009 (ip), vehicle: saline with Tween-80
[3] = dose: 100.0 mg/kg/injection, schedule: Q04DX003 (ip), vehicle: saline with Tween-80
[4] = dose: 50.0 mg/kg/injection, schedule: Q01DX009 (ip), vehicle: Klucel (hydroxypropylcellulose) (HPC)
[5] = dose: 100.0 mg/kg/injection, schedule: Q01DX009 (ip), vehicle: Klucel (hydroxypropylcellulose) (HPC)
[6] = dose: 200.0 mg/kg/injection, schedule: Q01DX009 (ip), vehicle: Klucel (hydroxypropylcellulose) (HPC)
[7] = dose: 60.0 mg/kg/injection, schedule: Q01DX005 (ip), vehicle: saline
[8] = dose: 120.0 mg/kg/injection, schedule: Q01DX005 (ip), vehicle: saline
[9] = dose: 50.0 mg/kg/injection, schedule: Q01DX005 (ip), vehicle: saline
[10] = dose: 50.0 mg/kg/injection, schedule: Q01DX005 (ip), vehicle: saline with Tween-80
[11] = dose: 100.0 mg/kg/injection, schedule: Q01DX005 (ip), vehicle: saline with Tween-80
[12] = dose: 60.0 mg/kg/injection, schedule: Q01DX005 (ip), vehicle: saline with Tween-80
[13] = dose: 120.0 mg/kg/injection, schedule: Q01DX005 (ip), vehicle: saline with Tween-80
[14] = dose: 240.0 mg/kg/injection, schedule: Q01DX005 (ip), vehicle: saline with Tween-80
[15] = dose: 240.0 mg/kg/injection, schedule: Q01DX005 (ip), vehicle: saline
[16] = dose: 50.0 mg/kg/injection, schedule: Q01DX005 (ip), vehicle: Klucel (hydroxypropylcellulose) (HPC)
[17] = dose: 100.0 mg/kg/injection, schedule: Q01DX005 (ip), vehicle: Klucel (hydroxypropylcellulose) (HPC)
[18] = dose: 200.0 mg/kg/injection, schedule: Q01DX005 (ip), vehicle: Klucel (hydroxypropylcellulose) (HPC)
[19] = dose: 100.0 mg/kg/injection, schedule: Q04DX002 (ip), vehicle: saline with Tween-80
[20] = dose: 200.0 mg/kg/injection, schedule: Q04DX002 (ip), vehicle: saline with Tween-80

## Cc1ccc(S(=O)(=O)N/N=C\c2c(-c3ccc(Cl)cc3)nc3sccn23)cc1
dose: 100.0 mg/kg/injection, schedule: Q01DX001 (ip), vehicle: Klucel (hydroxypropylcellulose) (HPC)
  T/C: 93 % of control
dose: 200.0 mg/kg/injection, schedule: Q01DX001 (ip), vehicle: Klucel (hydroxypropylcellulose) (HPC)
  T/C: 94 % of control

## Cc1cc(=Nc2ccc3c(c2)c(N)cc(C)[n+]3C)nc(N)n1C
dose: 6.25 mg/kg/injection, schedule: Q01DX005 (ip), vehicle: Klucel (hydroxypropylcellulose) (HPC)
  T/C: 107 % of control
dose: 12.5 mg/kg/injection, schedule: Q01DX005 (ip), vehicle: Klucel (hydroxypropylcellulose) (HPC)
  T/C: 107 % of control
dose: 25.0 mg/kg/injection, schedule: Q01DX005 (ip), vehicle: Klucel (hydroxypropylcellulose) (HPC)
  T/C: 104 % of control

## CC(C)Cn1c(Cl)c(C(=O)O)c2ccccc21
dose: 100.0 mg/kg/injection, schedule: Q04DX002 (ip), vehicle: Klucel (hydroxypropylcellulose) (HPC)
  T/C: 92 % of control
dose: 200.0 mg/kg/injection, schedule: Q04DX002 (ip), vehicle: Klucel (hydroxypropylcellulose) (HPC)
  T/C: 88 % of control

## CC1=CCC(C(C)C2CCC3(C)C4=C(C=C5C=CC(=O)OC(C)(C)C5CC4)CCC23C)OC1=O (stereo unspecified)
dose: 12.5 mg/kg/injection, schedule: Q01DX005 (ip), vehicle: other
  T/C: 108 % of control
dose: 25.0 mg/kg/injection, schedule: Q01DX005 (ip), vehicle: other
  T/C: 100 % of control
dose: 50.0 mg/kg/injection, schedule: Q01DX005 (ip), vehicle: other
  T/C: 93 % of control
dose: 100.0 mg/kg/injection, schedule: Q01DX005 (ip), vehicle: other
  T/C: 91 % of control

## CCOC(=O)c1ccc(NC)cc1
[1]
  T/C: 105 % of control
[2]
  T/C: 102 % of control
dose: 200.0 mg/kg/injection, schedule: Q01DX009 (ip), vehicle: saline with Tween-80
  T/C: 118 % of control

## COC(=O)C(CSC(c1ccccc1)(c1ccccc1)c1ccccc1)NC(=O)C(CSCc1ccccc1)NC(C)=O (stereo unspecified) (Ac-Cys(Bn)-Cys(Trt)-OMe; configuration not given here)
dose: 4.0 mg/kg/injection, schedule: Q01DX009 (ip), vehicle: water
  T/C: 96 % of control
dose: 8.0 mg/kg/injection, schedule: Q01DX009 (ip), vehicle: water
  T/C: 104 % of control
dose: 16.0 mg/kg/injection, schedule: Q01DX009 (ip), vehicle: water
  T/C: 101 % of control
dose: 32.0 mg/kg/injection, schedule: Q01DX009 (ip), vehicle: water
  T/C: 95 % of control
dose: 64.0 mg/kg/injection, schedule: Q01DX009 (ip), vehicle: water
  T/C: 95 % of control
dose: 128.0 mg/kg/injection, schedule: Q01DX009 (ip), vehicle: water
  T/C: 90 % of control

## CN(C)CCNc1ccc(O)c2sc3ccccc3c(=O)c12
[3]
  T/C: 94 % of control
dose: 200.0 mg/kg/injection, schedule: Q04DX003 (ip), vehicle: saline with Tween-80
  T/C: 90 % of control

## COc1ccc2nc(NC(=O)Nc3ccc(Cc4ccc(NC(=O)Nc5nc6ccc(OC)cc6s5)cc4)cc3)sc2c1
[4]
  T/C: 100 % of control
[5]
  T/C: 94 % of control
[6]
  T/C: 99 % of control

## CCCCNC(=O)OCCN(C)CCOC(=O)NCCCC
[7]
  T/C: 107 % of control
[8]
  T/C: 101 % of control

## S=c1nn[nH]n1-c1ccccc1
dose: 25.0 mg/kg/injection, schedule: Q04DX003 (ip), vehicle: saline with Tween-80
  T/C: 100 % of control
[1]
  T/C: 110 % of control
dose: 50.0 mg/kg/injection, schedule: Q04DX003 (ip), vehicle: saline with Tween-80
  T/C: 100 % of control
[2]
  T/C: 110 % of control
[3]
  T/C: 100 % of control and 91 % of control

## C=C1CCCC2CCC[N+](C)(CC(=O)OCC)C12 (stereo unspecified)
[9]
  T/C: 93 % of control

## Cc1cc2c(c(Br)c1O)Oc1c(cc(C)c(O)c1Br)C21OC(=O)c2ccccc21
[10]
  T/C: 110 % of control
[11]
  T/C: 106 % of control
dose: 200.0 mg/kg/injection, schedule: Q01DX005 (ip), vehicle: saline with Tween-80
  T/C: 105 % of control

## CC(N)C(=O)Nc1ccc(C(=O)O)c(O)c1 (stereo unspecified)
[12]
  T/C: 100 % of control
[13]
  T/C: 102 % of control
[14]
  T/C: 93 % of control

## O=S1(=O)CS(=O)(=O)OCCCCO1
dose: 12.5 mg/kg/injection, schedule: Q01DX005 (ip), vehicle: saline
  T/C: 176 % of control
dose: 25.0 mg/kg/injection, schedule: Q01DX005 (ip), vehicle: saline
  T/C: 167 % of control and 199 % of control
[9]
  T/C: 87 % of control

## CC(C)(C)c1cc(C(C)(C)C)c2[n+]([O-])ssc1-2
dose: 15.0 mg/kg/injection, schedule: Q01DX005 (ip), vehicle: saline with Tween-80
  T/C: 120 % of control
dose: 30.0 mg/kg/injection, schedule: Q01DX005 (ip), vehicle: saline with Tween-80
  T/C: 108 % of control
[12]
  T/C: 113 % of control and 95 % of control
[13]
  T/C: 97 % of control

## CC(=O)NCN(C)[N+](=O)[O-]
[7]
  T/C: 115 % of control
[8]
  T/C: 97 % of control
[15]
  T/C: 108 % of control

## N=C(N)c1ccc(N=Nc2cc(N=Nc3ccc(C(=N)N)cc3)c(O)cc2O)cc1
[16]
  T/C: 92 % of control
[17]
  T/C: 92 % of control
[18]
  T/C: 100 % of control

## CC(=O)OC1C(C(O)CO)OC2OC(C)(C)OC21 (stereo unspecified)
[7]
  T/C: 100 % of control
[8]
  T/C: 105 % of control
[15]
  T/C: 96 % of control

## COC(=O)C1=C(C(=O)OC)CC(n2nnc(C(=O)OC)c2C(=O)OC)=CC1
[12]
  T/C: 92 % of control
[13]
  T/C: 101 % of control
[14]
  T/C: 99 % of control

## COP(=O)(OC)OC.COP(=O)(OC)OC.COP(=O)(OC)OC.COP(=O)(OC)OC.COP(=O)(OC)OC.[O-][Cl+3]([O-])([O-])O.[Zn+2]
dose: 25.0 mg/kg/injection, schedule: Q01DX009 (ip), vehicle: saline
  T/C: 104 % of control and 114 % of control
dose: 50.0 mg/kg/injection, schedule: Q01DX009 (ip), vehicle: saline
  T/C: 106 % of control and 112 % of control (2×)
dose: 100.0 mg/kg/injection, schedule: Q01DX009 (ip), vehicle: saline
  T/C: 118 % of control and 119 % of control and 123 % of control

## c1ccc(CNc2nc(NCc3ccccc3)c3cn[nH]c3n2)cc1
dose: 25.0 mg/kg/injection, schedule: Q01DX009 (ip), vehicle: Klucel (hydroxypropylcellulose) (HPC)
  T/C: 98 % of control
[4]
  T/C: 110 % of control
[5]
  T/C: 103 % of control
[6]
  T/C: 100 % of control

## ClCC1=NC2CCCCC2N1 (stereo unspecified)
[10]
  T/C: 102 % of control
[11]
  T/C: 98 % of control

## CN(C)CN1C(=O)CC(c2ccccc2)C1=O (stereo unspecified)
[9]
  T/C: 110 % of control
dose: 100.0 mg/kg/injection, schedule: Q01DX005 (ip), vehicle: saline
  T/C: 107 % of control
dose: 200.0 mg/kg/injection, schedule: Q01DX005 (ip), vehicle: saline
  T/C: 115 % of control

## CN=C(NC)c1ccc(NC(=O)Nc2ccc(C)c(NC(=O)Nc3ccc(C(=NC)NC)cc3)c2)cc1
dose: 1.56 mg/kg/injection, schedule: Q01DX005 (ip), vehicle: saline
  T/C: 96 % of control
dose: 3.12 mg/kg/injection, schedule: Q01DX005 (ip), vehicle: saline
  T/C: 99 % of control
dose: 6.25 mg/kg/injection, schedule: Q01DX005 (ip), vehicle: saline
  T/C: 96 % of control
dose: 6.25 mg/kg/injection, schedule: Q01DX005 (ip), vehicle: suspension in saline
  T/C: 103 % of control

## CCN(CC)c1ccc2cc(C(=O)NC(=O)Oc3ccccc3)c(=O)oc2c1
[19]
  T/C: 92 % of control
[20]
  T/C: 89 % of control
dose: 400.0 mg/kg/injection, schedule: Q04DX002 (ip), vehicle: saline with Tween-80
  T/C: 87 % of control

## C=Cc1c2ccccc2cc2ccccc12
[16]
  T/C: 109 % of control
[17]
  T/C: 106 % of control
[18]
  T/C: 100 % of control

## Cc1nn(C(=O)c2ccncc2)c(C)c1N=Nc1nc2ccc([N+](=O)[O-])cc2s1
[19]
  T/C: 97 % of control
[20]
  T/C: 94 % of control

## C[Si](C)(OC(=O)N(CCCl)CCCl)O[Si](C)(C)OC(=O)N(CCCl)CCCl
dose: 6.25 mg/kg/injection, schedule: Q01DX009 (ip), vehicle: saline with Tween-80
  T/C: 108 % of control
dose: 12.5 mg/kg/injection, schedule: Q01DX009 (ip), vehicle: saline with Tween-80
  T/C: 124 % of control
dose: 25.0 mg/kg/injection, schedule: Q01DX009 (ip), vehicle: saline with Tween-80
  T/C: 165 % of control
[1]
  T/C: 115 % of control
